One data set relates to Leishmania donovani. Briefly: Antiparasitic activity against amastigote form of Leishmania donovani MHOM/ET/67/L82 assessed as growth inhibition after 70 hrs by resazurin dye-based fluorometric analysis. Conditions: MHOM/ET/67/L82, 70 h. Format: functional, organism-based. (In general: The colour change of resazurin is a common sign of viable cells or microbes.)
In data set [1] the test system is Trypanosoma brucei brucei. Briefly: Antitrypanosomal activity against Trypanosoma brucei brucei infected in HEK293 cells assessed as growth inhibition after 72 hrs by Alamar Blue assay. Format: functional, organism-based. To be noted: HEK293, 72 h.
For a further data set, the system named is Plasmodium falciparum. Briefly: Antiparasitic activity against erythrocytic stage of Plasmodium falciparum NF54 assessed as growth inhibition after 48 hrs by [3H]-hypoxanthine incorporation assay. Format: functional, organism-based.
In another data set the test system is L6. Nature of the data set: Cytotoxicity against rat L6 cells after 70 hrs by resazurin dye-based fluorometric analysis. Format: cell-based. To be noted: L6, 70 h.
Data set [2] is described as follows: Selectivity index, ratio of IC50 for HEK293 cells to IC50 for Trypanosoma brucei brucei infected in HEK293 cells. Format: toxicity, cell-based. Conditions: human, read-out: Ratio IC50.
A short description of data set [3]: Selectivity index, ratio of IC50 for rat L6 cells to IC50 for bloodstream form of Trypanosoma brucei rhodesiense STIB900. Format: toxicity, cell-based. To be noted: read-out: Ratio IC50.
Another data set concerns Trypanosoma cruzi. Nature of the data set: Antitrypanosomal activity against […] of Trypanosoma cruzi Tulahuen C2C4 infected in rat L6 cells assessed as growth inhibition after 96 hrs by beta-galactosidase reporter gene assay. To be noted: Tulahuen C2C4, L6, 96 h. Format: functional, organism-based. A general note: Reporter assays use an easily measured gene product as a stand-in for the process of interest.

The test system of data set [4] is Trypanosoma brucei rhodesiense. Briefly: Antitrypanosomal activity against bloodstream form of Trypanosoma brucei rhodesiense STIB900 assessed as growth inhibition after 70 hrs by resazurin dye-based fluorometric analysis. To be noted: STIB900, 70 h. Format: functional, organism-based.

Where only a bound is given, the exact number is not on record here.

As a reminder, the IC50 is the concentration at which inhibition is half-maximal. Take `CCOc1ccc(OCc2ccc(C(=O)N3CCCC(C)C3)cc2)cc1` (stereo not given): the 50% inhibitory concentration (IC50) in the data set on Leishmania donovani worked out at 35.7 µM; in data set [1], 1.15 µM; with Plasmodium falciparum, 22.3 µM; in the data set with L6 it was 186 µM; in the data set on Trypanosoma cruzi, 107 µM; in data set [4], 0.985 µM. Further, the selectivity ratio in data set [2] is 36; in data set [3], 190. Turning to `CCOc1ccc(OCc2ccc(C(=O)N3CCOCC3)cc2)cc1`, the half-maximal inhibitory concentration (IC50) in data set [1] came to 4.2 µM. Further, in data set [2], the selectivity ratio stood at 20.

With `CCOc1ccc(OCc2ccc(C(=O)O)cc2)cc1`, the IC50 in data set [1] was over 50 µM. In the case of `CCCc1ccc(OCc2ccc(C(=O)N3CCCC(C)C3)cc2)cc1` (stereo not given), in data set [1], the IC50 was over 50 µM.

Turning to `Cc1ccc(OCc2ccc(C(=O)N3CCCCC3C)cc2)cc1` (stereo not given), the IC50 in data set [1] came out at 9.2 µM. In data set [2], the selectivity ratio was determined as 9. Take `CCCc1ccc(OCc2ccc(C(=O)N3CCCCC3C)cc2)cc1` (stereo not given): in data set [1], the IC50 amounted to 10 µM. Besides, in data set [2], the selectivity ratio is 8. Consider `Cc1ccc(OCc2ccc(C(=O)N3CCC(C)CC3)cc2)cc1`, for which the 50% inhibitory concentration (IC50) in data set [1] is over 50 µM. For `CCc1ccc(OCc2ccc(C(=O)N3CCC(C)CC3)cc2)cc1`, the IC50 in data set [1] was over 50 µM. Regarding `COc1ccc(OCc2ccc(C(=O)N3CCC(C)CC3)cc2)cc1`, the IC50 in data set [1] was over 50 µM. Still for that read-out and setting: as for `CCOc1ccc(OCc2ccc(C(=O)N3CCC(C)CC3)cc2)cc1`, the figure is over 50 µM. Consider `CCOc1ccc(NCc2ccc(C(=O)N3CCCCC3)cc2)cc1`, for which the IC50 in data set [1] was 2.9 µM. Moreover, the selectivity ratio in data set [2] was 29.

Regarding `CCc1ccc(OCc2ccc(C(=O)N3CCOCC3)cc2)cc1`, the half-maximal inhibitory concentration (IC50) in data set [1] stood at 14.8 µM. Besides, the selectivity ratio in data set [2] worked out at 6. In the same order, the values of `CCOc1ccc(NCc2ccc(C(=O)N3CCOCC3)cc2)cc1` are 20.6 µM and 4. For `CCc1ccc(OCc2ccc(C(=O)N3CCN(C)CC3)cc2)cc1`, the half-inhibitory concentration (IC50) in data set [1] is over 50 µM. With `COc1ccc(OCc2ccc(C(=O)N3CCN(C)CC3)cc2)cc1`, in data set [1], the IC50 was over 50 µM. With `CCOc1ccc(OCc2ccc(C(=O)N3CCN(C)CC3)cc2)cc1`, in data set [1], the half-maximal inhibitory concentration (IC50) is over 50 µM. As for `COc1ccc(OCc2ccc(C(=O)N(C)c3ccccc3)cc2)cc1`, the 50% inhibitory concentration (IC50) in data set [1] is 18 µM. In addition, the selectivity ratio in data set [2] was found to be 5.

Regarding `CCOc1ccc(OCc2ccc(C(=O)NC(C)C)cc2)cc1`, in data set [1], the half-inhibitory concentration (IC50) is over 50 µM.

`CCOc1ccc(OCCCCCC(=O)N2CCCCC2)cc1`: the half-inhibitory concentration (IC50) in data set [1] turned out to be 7.35 µM. For the same compound, the selectivity ratio in data set [2] is 5. For `CCOc1ccc(OCCCCCC(=O)N2CCCCC2C)cc1` (stereo not given), the IC50 in data set [1] turned out to be 1.66 µM. In data set [2], the selectivity ratio was found to be 50. In the same order, the values of `CCOc1ccc(OCCCCCC(=O)N(C(C)C)C(C)C)cc1` are 2.03 µM and 41. Regarding `O=C(Cn1ccnc1[N+](=O)[O-])NCc1ccccc1` [BENZNIDAZOLE], the IC50 with Trypanosoma cruzi was 2.33 µM. With `CCCCCCCCCCCCCCCCOP(=O)([O-])OCC[N+](C)(C)C` [MILTEFOSINE], the half-maximal inhibitory concentration (IC50) in the data set with Leishmania donovani was determined as 0.572 µM.
